Results reported in patent US7491711B2, “Methods of treatment using 3-desoxy vitamin D3 analogs” (Roche Palo Alto LLC, priority 2001, dated 2009).
Marks after values point to notes of the source that are not given here.

What was measured:
[1] = tested on: rat ovariectomy model (post menopausal osteopenia); assay: L5 vertebral body biomechanics (axial compression testing), rat ovariectomy model; format: in vivo; details: OVX rats
Description: (§1) Comparison of the efficacy of Compound 7 to that of 1,25-dihydroxy vitamin D3 (i.e., VD3), was made using the standard animal model for post menopausal osteopenia, the rat ovariectomy model. Three month old rats weighing 285gm were ovariectomized (OVX), and then treated for 8 weeks beginning 1 week post OVX. Drugs were administered once/day orally in miglyol (medium chain triglyceride) vehicle. Blood and urine samples were collected at the 3 wk and 6 wk timepoint, and bone mineral density (BMD) was determined in vivo at 6 wk using Dual Energy X-ray Absorptiometry (Hologic QDR-4500™ Bone Scanner). At 8 weeks, the animals were sacrificed, and the lumbar vertebrae and femur bones removed for ex vivo BMD determination (Lunar PixiMus™ Bone Scanner) and biomechanical testing for strength. Data for each compound are reported in the accompanying tables for the highest safe doses.
(§2) The doses being compared all gave 3 wk serum calcium levels of 9.3 mg/dl, and 6 wk levels of 9.8±0.1 mg/dl. At these doses, the urinary calcium output per 24 hr sample was the same for the 0.4 nmol/kg dose of VD3 and the 0.5 nmol/kg dose of Compound 7. […] These doses represent those expected to give maximal efficacy achievable safely, as higher doses of each compound are known to be hypercalcemic. […] Failure Load, the amount of force needed to fracture the L5 vertebra, was determined in axial compression testing.

[2] = tested on: rat ovariectomy model (post menopausal osteopenia); assay: Bone mineral density in vivo (Dual Energy X-ray Absorptiometry), rat ovariectomy model; details: OVX rats
Description: as §1, §2

[3] = tested on: rat ovariectomy model (post menopausal osteopenia); assay: Urinary deoxypyridinolines (marker of bone resorption), rat ovariectomy model; format: in vivo; details: OVX rats
Description: as §1, §2

[4] = tested on: rat ovariectomy model (post menopausal osteopenia); assay: L5 bone density ex vivo (BMD, BMC), rat ovariectomy model; format: in vivo; details: OVX rats
Description: as §1

[5] = tested on: women with postmenopausal osteoporosis; details: cited from earlier work
[6] = Urinary calcium in the rat ovariectomy model (safety); format: in vivo; details: OVX rats; for urinary calcium output per 24 hr sample, compared between the two substances: 0.4 nmol/kg dose of VD3 and 0.5 nmol/kg dose of Compound 7
Description: as §1, §2

[7] = tested on: patients commencing long term treatment with prednisone or prednisolone; details: 0.5 to 1.0 micrograms/day plus calcium 1000 mg/day, with or without intranasal calcitonin 400 IU/day; cited from earlier work
[8] = Serum calcium in the rat ovariectomy model (safety); format: in vivo; details: OVX rats
Description: as §1, §2

[9] = Week 8, 0.012 nmol/kg once/day orally
[10] = Week 6, 0.012 nmol/kg once/day orally
[11] = Week 6, 0.04 nmol/kg once/day orally
[12] = Week 3, 0.012 nmol/kg once/day orally
[13] = Week 3, 0.04 nmol/kg once/day orally
[14] = Week 8, 0.5 nmol/kg once/day orally
[15] = Week 6, 0.5 nmol/kg once/day orally
[16] = Week 3, 0.5 nmol/kg once/day orally

C=C1/C(=C\C=C2/CCC[C@]3(C)[C@@H]([C@H](C)CCCC(C)(C)O)CC[C@@H]23)C[C@@H](O)C[C@@H]1O [VitD, 1,25-dihydroxy vitamin D3]
L5 Vertebral Body BIOMECHANICS, Failure Load, Mean [1, 9]: 342 * N
PERCENT BMD > OVX CONTROL in vivo, Distal Femur, Mean [2, 10]: 2.8 ++ PERCENT
PERCENT BMD > OVX CONTROL in vivo, L2-L4 Vertebrae, Mean [2, 10]: 3.3 ++ PERCENT
PERCENT BMD > OVX CONTROL in vivo, L5 vertebrae, Mean [2, 10]: 2.7 ++ PERCENT
PERCENT BMD > OVX CONTROL in vivo, Prox Femur, Mean [2, 10]: 3.5 ns PERCENT
PERCENT BMD > OVX CONTROL in vivo, Whole Femur, Mean [2, 10]: 3.3 + PERCENT
PERCENT BMD > OVX CONTROL in vivo, Distal Femur, Mean [2, 11]: 2.8 ++ PERCENT
PERCENT BMD > OVX CONTROL in vivo, L2-L4 Vertebrae, Mean [2, 11]: 5.4 * PERCENT
PERCENT BMD > OVX CONTROL in vivo, L5 vertebrae, Mean [2, 11]: 4.9 ++ PERCENT
PERCENT BMD > OVX CONTROL in vivo, Prox Femur, Mean [2, 11]: 0.7 ++ PERCENT
PERCENT BMD > OVX CONTROL in vivo, Whole Femur, Mean [2, 11]: 1.9 ++ PERCENT
URINARY D-PYD, Mean [3, 12]: 0.81 ++ nM/mM Creatinine
URINARY D-PYD, Mean [3, 13]: 0.75 ++ nM/mM Creatinine
URINARY D-PYD, Mean [3, 10]: 0.78 ++ nM/mM Creatinine
URINARY D-PYD, Mean [3, 11]: 0.76 ++ nM/mM Creatinine
L5 Bone Density Ex Vivo, BMC, Mean [4, 9]: 0.035 ns g
L5 Bone Density Ex Vivo, BMD, Mean [4, 9]: 0.103 ++ g/cm^2
lower rate of new vertebral fractures compared with patients receiving elemental calcium 1000 mg/day ([5]; mild to moderate disease, 0.25 microgram twice daily, after 3 years of treatment): 3 fold
tolerability ([5]; patients, overall): well tolerated
urinary calcium output per 24 hr sample, compared between the two substances [6]: the same
URINARY CALCIUM, Mean [6, 12]: 0.31 ** MG/MMOL Creatineine/day
URINARY CALCIUM, Mean [6, 13]: 0.51 **+ MG/MMOL Creatineine/day
URINARY CALCIUM, Mean [6, 10]: 0.43 ** MG/MMOL Creatineine/day
URINARY CALCIUM, Mean [6, 11]: 0.71 **++ MG/MMOL Creatineine/day
steroid-induced bone loss [7]: prevented steroid-induced bone loss
SERUM CALCIUM, Mean [8, 12]: 9.3 nd mg/dl
SERUM CALCIUM, Mean [8, 13]: 9.3 ns mg/dl
SERUM CALCIUM, Mean [8, 10]: 9.8 **+ mg/dl
SERUM CALCIUM, Mean [8, 11]: 9.7 ** mg/dl

C=C1/C(=C\C=C2/CCC[C@]3(C)[C@@H](C4(C/C=C/C(O)(C(F)(F)F)C(F)(F)F)CC4)CC[C@@H]23)CCC[C@@H]1O [Compound 27]
vertebral bone strength ([1]; L5 vertebra): stronger vertebral bone
L5 Vertebral Body BIOMECHANICS, Failure Load, Mean [1, 14]: 419 ** N
Failure Load, force needed to fracture the L5 vertebra, compared with VD3 ([1]; axial compression testing, highest safe doses): Significantly more force was needed
PERCENT BMD > OVX CONTROL in vivo, Distal Femur, Mean [2, 15]: 8.5 ** PERCENT
PERCENT BMD > OVX CONTROL in vivo, L2-L4 Vertebrae, Mean [2, 15]: 10.3 ** PERCENT
PERCENT BMD > OVX CONTROL in vivo, L5 vertebrae, Mean [2, 15]: 8.7 ** PERCENT
PERCENT BMD > OVX CONTROL in vivo, Prox Femur, Mean [2, 15]: 5.7 ** PERCENT
PERCENT BMD > OVX CONTROL in vivo, Whole Femur, Mean [2, 15]: 6.3 ** PERCENT
BMD at all of the bone sites listed, compared with VD3 ([2]; doses which give equivalent serum calcium levels): significantly higher
Urinary deoxy-pyridinolines (marker of bone resorption), compared with VD3 ([3]; 6 weeks): significantly less
URINARY D-PYD, Mean [3, 16]: 0.65 *+ nM/mM Creatinine
URINARY D-PYD, Mean [3, 15]: 0.57 **+ nM/mM Creatinine
L5 Bone Density Ex Vivo, BMC, Mean [4, 14]: 0.039 ** g
L5 Bone Density Ex Vivo, BMD, Mean [4, 14]: 0.112 ** g/cm^2
urinary calcium output per 24 hr sample, compared between the two substances [6]: the same
URINARY CALCIUM, Mean [6, 16]: 0.51 **+ MG/MMOL Creatineine/day
URINARY CALCIUM, Mean [6, 15]: 0.72 **++ MG/MMOL Creatineine/day
SERUM CALCIUM, Mean [8, 16]: 9.3 ns mg/dl
SERUM CALCIUM, Mean [8, 15]: 9.9 **+ mg/dl
